As usually defined, the CC50 is the concentration at which the toxic effect on the cells reaches its halfway point. A word on the pIC50: it is the IC50 on a negative log10 scale, so that one unit is a factor of ten.

These results are taken from ChEMBL document CHEMBL5137018, “Pyranochromones with Anti-Inflammatory Activities in Arthritis from Calophyllum membranaceum” (J Nat Prod, 2022).

Experiment [1] concerns RAW264.7. Kind of experiment: Cytotoxicity against mouse RAW264.7 cells assessed as effect on cell viability measured after 12 hrs by MTT assay. The class given is functional. In general terms: Tetrazolium assays rely on reduction of a dye to a coloured formazan, in cell work by metabolically active cells.
The subject of experiment [2] is RAW264.7. Nature of the experiment: Antiinflammatory activity in mouse RAW264.7 assessed as inhibition of LPS-induced NO production preincubated for 12 hrs followed by LPS stimulation and measured after 6 hrs by Griess reagent based assay. The experiment is classed as functional, cell-based. On the technique in general: Nitrite, measured by Griess reagent, commonly stands in for NO production.

Experiment [3] concerns Mus musculus. Kind of experiment: Antiinflammatory activity in carrageenan-induced acute arthritis ICR mouse assessed as reduction in relative neutrophil to lymphocyte ratio at 10 mg/kg, po for 10 days followed by carrageenan stimulation and measured upto 6 hrs by hematology analyzer. The class given is functional. The settings on record: time 10 day.
The test system of experiment [4] is RAW264.7. Kind of experiment: Antiinflammatory activity in mouse RAW264.7 cells assessed as suppression of NF-kappa B expression at 0.1 to 5 uM preincubated for 12 hrs followed by LPS stimulation and measured after 24 hrs by western blot assay. The class given is functional, cell-based. The note with it: dose 0.1-5 µM, time 36.0 hrs, DDE = dose-dependent effect. (In general: Immunoblotting shows a protein as a band on a membrane.)

In experiment [5] the test system is Mus musculus. Kind of experiment: Antiinflammatory activity in carrageenan-induced acute arthritis ICR mouse assessed as downregulation of IL-5 secretion in plasma measured at 10 to 20 mg/kg, po for 10 days followed by carrageenan stimulation and measured after 6 hrs by ELISA. The class given is functional, organism-based. The settings on record: dose 10-20 mg/kg, time 10.0 day, DDE = dose-dependent effect.

Experiment [6] deals with RAW264.7. Kind of experiment: Antiinflammatory activity in LPS induced mouse RAW264.7 cells assessed as downregulation of IL-2 secretion at 0.1 to 5 uM incubated for 12 hrs followed by LPS stimulation and measured after 24 hrs by ELISA. The experiment is classed as functional, cell-based. The note with it: dose 0.1-5 µM, time 36.0 hrs, DDE = dose-dependent effect.
For experiment [7], the system named is Mus musculus. Nature of the experiment: Antiinflammatory activity in carrageenan-induced acute arthritis ICR mouse assessed as reduction in paw swelling at 10 to 20 mg/kg, po for 10 days followed by carrageenan stimulation and measured upto 6 hrs by vernier caliper method. The class given is functional, organism-based. The settings on record: dose 10-20 mg/kg, time 10.0 day.

Experiment [8] concerns Mus musculus. Kind of experiment: Antiinflammatory activity in carrageenan-induced acute arthritis ICR mouse assessed as downregulation of IL-2 secretion in plasma measured at 10 to 20 mg/kg, po for 10 days followed by carrageenan stimulation and measured after 6 hrs by ELISA. The settings on record: dose 10-20 mg/kg, time 10.0 day, DDE = dose-dependent effect. The class given is functional, organism-based.

Experiment [9] relates to RAW264.7. Nature of the experiment: Antiinflammatory activity in mouse RAW264.7 cells assessed as increase in IKK beta phosphorylation at 0.1 to 5 uM preincubated for 12 hrs followed by LPS stimulation and measured after 24 hrs by western blot assay. The class given is functional, cell-based. The settings on record: dose 0.1-5 µM, time 36.0 hrs, DDE = dose-dependent effect.

The test system of experiment [10] is Mus musculus. Kind of experiment: Antiinflammatory activity in carrageenan-induced acute arthritis ICR mouse assessed as downregulation of IL-4 secretion in plasma measured at 10 to 20 mg/kg, po for 10 days followed by carrageenan stimulation and measured after 6 hrs by ELISA. The class given is functional, organism-based. The note with it: dose 10-20 mg/kg, time 10.0 day, DDE = dose-dependent effect.

Experiment [11] deals with Mus musculus. Kind of experiment: Antiinflammatory activity in carrageenan-induced acute arthritis ICR mouse assessed as reduction in relative neutrophil to lymphocyte ratio at 20 mg/kg, po for 10 days followed by carrageenan stimulation and measured upto 6 hrs by hematology analyzer. The settings on record: time 10 day. The experiment is classed as functional.
In experiment [12] the target is T1, Toll-like receptor 4 (Mus musculus) (UniProt Q9QUK6).
T1 sequence (whole entry): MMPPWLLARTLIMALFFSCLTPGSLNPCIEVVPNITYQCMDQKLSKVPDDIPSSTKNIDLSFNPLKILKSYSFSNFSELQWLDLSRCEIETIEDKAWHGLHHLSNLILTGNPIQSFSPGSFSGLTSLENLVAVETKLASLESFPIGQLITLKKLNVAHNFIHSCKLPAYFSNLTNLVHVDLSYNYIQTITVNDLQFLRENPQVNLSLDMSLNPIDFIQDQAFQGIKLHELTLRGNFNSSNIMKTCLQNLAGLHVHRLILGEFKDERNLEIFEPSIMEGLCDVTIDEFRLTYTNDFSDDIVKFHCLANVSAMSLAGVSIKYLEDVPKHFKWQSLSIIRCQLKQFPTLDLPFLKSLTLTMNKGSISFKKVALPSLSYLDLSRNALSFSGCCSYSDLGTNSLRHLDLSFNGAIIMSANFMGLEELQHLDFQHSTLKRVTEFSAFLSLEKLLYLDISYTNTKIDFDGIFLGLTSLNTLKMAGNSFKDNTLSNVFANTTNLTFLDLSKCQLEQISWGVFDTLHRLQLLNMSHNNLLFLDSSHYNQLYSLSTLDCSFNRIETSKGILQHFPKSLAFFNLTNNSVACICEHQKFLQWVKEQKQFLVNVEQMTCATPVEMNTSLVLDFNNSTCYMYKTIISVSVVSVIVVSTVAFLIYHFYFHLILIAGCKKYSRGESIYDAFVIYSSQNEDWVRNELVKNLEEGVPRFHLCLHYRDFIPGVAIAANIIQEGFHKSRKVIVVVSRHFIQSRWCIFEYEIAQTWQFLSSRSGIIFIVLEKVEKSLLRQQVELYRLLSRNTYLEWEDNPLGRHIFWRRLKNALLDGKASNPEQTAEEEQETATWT
Nature of the experiment: Binding affinity to mouse TLR4 in RAW264.7 cells assessed as thermal stabilization at 1 uM and measured after 12 hrs by CETSA analysis. The class given is cell-based.

For experiment [13], the system named is RAW264.7. Nature of the experiment: Antiinflammatory activity in mouse RAW264.7 cells assessed as increase in IKK alpha phosphorylation at 0.1 to 5 uM preincubated for 12 hrs followed by LPS stimulation and measured after 24 hrs by western blot assay. The class given is functional, cell-based. The note with it: dose 0.1-5 µM, time 36.0 hrs, DDE = dose-dependent effect.

Experiment [14] concerns RAW264.7. Nature of the experiment: Antiinflammatory activity in LPS induced mouse RAW264.7 cells assessed as downregulation of IL-4 secretion at 0.1 to 5 uM incubated for 12 hrs followed by LPS stimulation and measured after 24 hrs by ELISA. The experiment is classed as functional, cell-based. The settings on record: dose 0.1-5 µM, time 36.0 hrs, DDE = dose-dependent effect.

Experiment [15] has as its system RAW264.7. Nature of the experiment: Antiinflammatory activity in LPS induced mouse RAW264.7 cells assessed as downregulation of IL-5 secretion at 0.1 to 5 uM incubated for 12 hrs followed by LPS stimulation and measured after 24 hrs by ELISA. The note with it: dose 0.1-5 µM, time 36.0 hrs, DDE = dose-dependent effect. The class given is functional, cell-based.

pIC50: −log10 of the molar value. Calls of active or inactive are those of the source. No cut-off for these calls is given here.

`C[C@@H]1Oc2c(c(O)c3c(c2[C@@H](CC(=O)O)c2ccccc2)OC(C)(C)C=C3)C(=O)[C@H]1C`: the CC50 with RAW264.7 [1] is 569 µM. Besides, the pIC50 in the experiment with RAW264.7 [2] is 4.86.

As to `CCCC1CC(=O)Oc2c(C(=O)[C@H](C)[C@H](C)O)c(O)c3c(c21)OC(C)(C)C=C3` (stereo partly drawn), the half-maximal cytotoxic concentration (CC50) in the experiment with RAW264.7 [1] turned out to be 552 µM. In addition, the pIC50 with RAW264.7 [2] is 5.07.

For the compound `COC(=O)C[C@@H](c1ccccc1)c1c2c(c(O)c3c1O[C@@H](C)[C@H](C)C3=O)C=CC(C)(C)O2`, in the experiment on RAW264.7 [1], the CC50 stood at 594 µM. For the same compound, the pIC50 in the experiment with RAW264.7 [2] is 4.90.

Turning to `CC/C=C\C[C@H](CC(=O)O)c1c2c(c(O)c3c1O[C@@H](C)[C@H](C)C3=O)C=CC(C)(C)O2`, the CC50 in the experiment with RAW264.7 [1] is 550 µM. Also, in the experiment with RAW264.7 [2], the pIC50 is 4.73.

For the compound `CCCC[C@H](CC(=O)OC)c1c2c(c(O)c3c1O[C@@H](C)[C@H](C)C3=O)C=CC(C)(C)O2`, the CC50 in the experiment on RAW264.7 [1] amounted to 574 µM. Moreover, the pIC50 in the experiment with RAW264.7 [2] was 5.37.

On to `CCCCC[C@H](CC(=O)OC)c1c(O)c2c(c3c1OC(C)(C)C=C3)O[C@H](C)[C@H](C)C2=O`, for which the Ratio was 0.89 in the experiment with Mus musculus [3] and 0.74 with Mus musculus [11]. The Activity result with RAW264.7 [4], in the experiment with Mus musculus [5], with RAW264.7 [6], in the experiment on Mus musculus [8], in the experiment with RAW264.7 [9] and in the experiment with Mus musculus [10] was “Dde” each time. Besides, the Activity result in the experiment on RAW264.7 [13], in the experiment with RAW264.7 [14] and in the experiment with RAW264.7 [15] was “Dde” throughout. Moreover, the CC50 in the experiment on RAW264.7 [1] stood at 660 µM. Moreover, the pIC50 in the experiment with RAW264.7 [2] was 6.04. Besides, the result (in the experiment on Mus musculus [7]; in experiment [12]) was Active.

Regarding `CCCCCC(CC(=O)OC)c1c2c(c(O)c3c1O[C@H](C)[C@@H](C)C3=O)C=CC(C)(C)O2` (stereo partly drawn), the CC50 in the experiment on RAW264.7 [1] stood at 687 µM. Besides, the pIC50 with RAW264.7 [2] is 5.39.

`CCC[C@@H](CC(=O)OC)c1c(O)c2c(c3c1OC(C)(C)C=C3)O[C@@H](C)[C@H](C)C2=O`: the CC50 in the experiment with RAW264.7 [1] worked out at 698 µM. Further, the pIC50 in the experiment on RAW264.7 [2] is 5.54.

Turning to `CCCCCC(CC(=O)O)c1c2c(c(O)c3c1O[C@H](C)[C@@H](C)C3=O)C=CC(C)(C)O2` (stereo partly drawn), in the experiment with RAW264.7 [1], the CC50 was found to be 668 µM. Moreover, the pIC50 in the experiment with RAW264.7 [2] was 5.16.

Regarding `C[C@@H]1C(=O)c2c(O)c([C@@H](CC(=O)O)c3ccccc3)c3c(c2O[C@@H]1C)C=CC(C)(C)O3` (single isomer, unassigned), the CC50 in the experiment on RAW264.7 [1] came to 583 µM. Moreover, the pIC50 with RAW264.7 [2] is 4.95.

On to `C[C@@H]1Oc2c3c(c([C@@H](CC(=O)O)c4ccccc4)c(O)c2C(=O)[C@@]1(C)O)OC(C)(C)C=C3`, for which the CC50 in the experiment with RAW264.7 [1] amounted to 588 µM. The negative logarithm of the IC50 (pIC50) in the experiment with RAW264.7 [2] is 5.08.

For `CCCC(CC(=O)OC)c1c2c(c(O)c3c1O[C@H](C)[C@@H](C)C3=O)C=CC(C)(C)O2` (stereo partly drawn), the CC50 with RAW264.7 [1] is 649 µM. Moreover, the pIC50 in the experiment on RAW264.7 [2] is 5.29.

As to `C[C@H]1Oc2c(c(O)c3c(c2[C@@H](CC(=O)O)c2ccccc2)OC(C)(C)C=C3)C(=O)[C@@H]1C`, the CC50 in the experiment on RAW264.7 [1] stood at 524 µM. Besides, in the experiment with RAW264.7 [2], the pIC50 is 4.90.

In the case of `CNC(=N)NCCC[C@H](N)C(=O)O` [TILARGININE ACETATE], in the experiment with RAW264.7 [1], the CC50 was determined as 214 µM. The pIC50 in the experiment with RAW264.7 [2] is 4.69.

In the case of `CCCC(CC(=O)O)c1c2c(c(O)c3c1O[C@H](C)[C@@H](C)C3=O)C=CC(C)(C)O2` (stereo partly drawn), the 50% cytotoxic concentration (CC50) in the experiment on RAW264.7 [1] is 663 µM. For the same compound, the pIC50 in the experiment with RAW264.7 [2] is 5.07.

`COC(=O)C[C@@H](c1ccccc1)c1c(O)c2c(c3c1OC(C)(C)C=C3)O[C@H](C)[C@H](C)C2=O`: in the experiment on RAW264.7 [1], the CC50 stood at 601 µM. Besides, the pIC50 with RAW264.7 [2] is 4.95.

Turning to `C[C@H](C(=O)c1c(O)c2c(c3c1OC(=O)C[C@H]3c1ccccc1)OC(C)(C)C=C2)[C@@H](C)O`, the CC50 with RAW264.7 [1] stood at 507 µM. Further, the pIC50 with RAW264.7 [2] is 5.00.

With `CCCCC(CC(=O)O)c1c2c(c(O)c3c1O[C@H](C)[C@@H](C)C3=O)C=CC(C)(C)O2` (stereo partly drawn), the CC50 with RAW264.7 [1] turned out to be 654 µM. Also, in the experiment on RAW264.7 [2], the pIC50 was 5.13.

As to `CCCCC[C@H](CC(=O)O)c1c(O)c2c(c3c1OC(C)(C)C=C3)O[C@H](C)[C@H](C)C2=O`, the cytotoxic concentration (CC50) in the experiment with RAW264.7 [1] came to 636 µM. Further, the pIC50 in the experiment with RAW264.7 [2] is 5.29.

In the case of `C[C@H](O)[C@H](C)C(=O)c1c(O)c2c(c3c1OC(=O)C[C@H]3c1ccccc1)OC(C)(C)C=C2`, the CC50 in the experiment on RAW264.7 [1] was found to be 517 µM. Moreover, in the experiment on RAW264.7 [2], the pIC50 is 5.03.
